Experiments:
[1] = target: T1, Bromodomain-containing protein 4 (Homo sapiens, UniProt O60885); test: Inhibition of recombinant his tagged BRD4 BD1 (unknown origin) at 2 uM by Alpha screen assay relative to control
[2] = system: MV4-11; test: Antiproliferative activity against human MV4-11 cells assessed as cell growth inhibition incubated for 72 hrs by CellTiter-Glo assay; type: functional, cell-based; settings: MV4-11, 72 h
[3] = Metabolic stability in rat liver microsomes assessed as intrinsic clearance incubated for 1 hr by LC-MS/MS analysis; type: ADME, Microsome; settings: read-out: CLH
[4] = Metabolic stability in human liver microsomes assessed as intrinsic clearance incubated for 1 hr by LC-MS/MS analysis; type: ADME, Microsome; settings: read-out: CLH
[5] = Metabolic stability in dog liver microsomes assessed as elimination half life incubated for 1 hr by LC-MS/MS analysis; type: ADME, Canis lupus familiaris, Microsome; settings: read-out: beta t1/2
[6] = Metabolic stability in human liver microsomes assessed as elimination half life incubated for 1 hr by LC-MS/MS analysis; type: ADME, Microsome; settings: read-out: beta t1/2
[7] = Metabolic stability in rat liver assessed as intrinsic clearance incubated for 1 hr by LC-MS/MS analysis; type: ADME, tissue-based; settings: read-out: CLH
[8] = Metabolic stability in rat liver microsomes assessed as elimination half life incubated for 1 hr by LC-MS/MS analysis; type: ADME, Microsome; settings: read-out: beta t1/2
[9] = Metabolic stability in monkey liver assessed as intrinsic clearance incubated for 1 hr by LC-MS/MS analysis; type: ADME, tissue-based, Macaca mulatta; settings: rhesus monkey, read-out: CLH
[10] = Metabolic stability in dog liver microsomes assessed as intrinsic clearance incubated for 1 hr by LC-MS/MS analysis; type: ADME, Canis lupus familiaris, Microsome; settings: read-out: CLH
[11] = Metabolic stability in monkey liver microsomes assessed as intrinsic clearance incubated for 1 hr by LC-MS/MS analysis; type: ADME, Macaca mulatta, Microsome; settings: rhesus monkey, read-out: CLH
[12] = Metabolic stability in monkey liver microsomes assessed as elimination half life incubated for 1 hr by LC-MS/MS analysis; type: ADME, Macaca mulatta, Microsome; settings: rhesus monkey, read-out: beta t1/2
[13] = Metabolic stability in dog liver assessed as intrinsic clearance incubated for 1 hr by LC-MS/MS analysis; type: ADME, tissue-based, Canis lupus familiaris; settings: read-out: CLH
[14] = Metabolic stability in human liver assessed as intrinsic clearance incubated for 1 hr by LC-MS/MS analysis; type: ADME, tissue-based; settings: read-out: CLH
[15] = target: T1, Bromodomain-containing protein 4; test: Inhibition of Alexa647 labelled MS417 binding to his tagged BRD4 BD1 (unknown origin) by TR-FRET assay
[16] = system: MV4-11; test: Antiproliferative activity against human MV4-11 cells assessed as cell growth inhibition at 1 uM incubated for 72 hrs by CellTiter-Glo assay relative to control; type: functional
[17] = system: HL-60(TB); test: Antiproliferative activity against human HL-60(TB) cells assessed as cell growth inhibition measured after 72 hrs by CellTiter-Glo assay; type: functional
[18] = system: HCT-15; test: Antiproliferative activity against human HCT-15 cells assessed as cell growth inhibition measured after 72 hrs by CellTiter-Glo assay; type: functional
[19] = system: SNB-75; test: Antiproliferative activity against human SNB-75 cells assessed as cell growth inhibition measured after 72 hrs by CellTiter-Glo assay; type: functional
[20] = system: MDA-MB-468; test: Antiproliferative activity against human MDA-MB-468 cells assessed as cell growth inhibition measured after 72 hrs by CellTiter-Glo assay; type: functional
[21] = system: CAKI-1; test: Antiproliferative activity against human CAKI-1 cells assessed as cell growth inhibition measured after 72 hrs by CellTiter-Glo assay; type: functional
[22] = system: UACC-62; test: Antiproliferative activity against human UACC-62 cells assessed as cell growth inhibition measured after 72 hrs by CellTiter-Glo assay; type: functional
[23] = system: MV4-11; test: Antitumor activity against human MV4-11 cells xenografted BALB/c nude mouse model assessed as tumor growth inhibition at 20 mg/kg, po QD administered for 28 consecutive days; type: functional; settings: MV4-11, 672 h, time 28 day, read-out: TGI
[24] = system: NCI-H522; test: Antiproliferative activity against human NCI-H522 cells assessed as cell growth inhibition measured after 72 hrs by CellTiter-Glo assay; type: functional

SMILES: CC(=O)c1c(C)[nH]c(-c2cnc3ccccc3c2)c1C
- inhibition [1]: 85.5%

SMILES: CCc1c(-c2nc3cc(N4CCN(C)CC4)ccc3[nH]2)[nH]c(C)c1C(C)=O
- IC50 [2]: 617 nM

SMILES: CC(=O)c1c(C)[nH]c(-c2nc3cc(N4CCN(C)CC4)ccc3[nH]2)c1-c1ccccc1Cl
- IC50 [2]: 438 nM

SMILES: CC(=O)c1c(C)[nH]c(-c2nc3cc(N4CCOCC4)ccc3[nH]2)c1-c1ccccc1
- microsomal CLint [3]: 68 µL/min/mg
- microsomal CLint [4]: 22.6 µL/min/mg
- half-life [5]: 44.6 min
- half-life [6]: 61.4 min
- CLint scaled [7]: 122 mL/min/kg
- half-life [8]: 20.4 min
- CLint scaled [9]: 63.1 mL/min/kg
- microsomal CLint [10]: 31.1 µL/min/mg
- IC50 [2]: 318 nM
- microsomal CLint [11]: 43.8 µL/min/mg
- half-life [12]: 31.6 min
- CLint scaled [13]: 44.8 mL/min/kg
- CLint scaled [14]: 21.4 mL/min/kg

SMILES: COc1cccc(-c2c(-c3nc4cc(N5CCN(C)CC5)ccc4[nH]3)[nH]c(C)c2C(C)=O)c1
- IC50 [2]: 284 nM

SMILES: CCOc1ccc(-c2c(-c3nc4cc(N5CCN(C)CC5)ccc4[nH]3)[nH]c(C)c2C(C)=O)cc1
- IC50 [2]: 192 nM

SMILES: COc1ccc(-c2c(-c3nc4cc(N5CCN(C)CC5)ccc4[nH]3)[nH]c(C)c2C(C)=O)cc1F
- IC50 [2]: 219 nM

SMILES: CC(=O)c1c(C)[nH]c(-c2nc3cc(N4CCN(C)CC4)ccc3[nH]2)c1-c1ccc2c(c1)OCO2
- IC50 [2]: 161 nM

SMILES: Cc1sc2c(c1C)C(c1ccc(Cl)cc1)=N[C@@H](CC(=O)OC(C)(C)C)c1nnc(C)n1-2
- IC50 [2]: 157 nM

SMILES: CC(=O)c1c(C)[nH]c(-c2nc3cc(N4CCC(CO)CC4)ccc3[nH]2)c1C
- IC50 [2]: 1560 nM

SMILES: CCS(=O)(=O)N1CCN(c2ccc3[nH]c(-c4[nH]c(C)c(C(C)=O)c4C)nc3c2)CC1
- IC50 [2]: 1640 nM

SMILES: CCS(=O)(=O)Nc1ccc(Oc2ccc(F)cc2F)c(-c2cn(C)c(=O)c3[nH]ccc23)c1 [MIVEBRESIB]
- IC50 [15]: 11 nM

SMILES: CC(=O)c1c(C)[nH]c(-c2nc3cc(N4CCN(C)CC4)ccc3[nH]2)c1-c1ccc2c(c1)OCCO2
- IC50 [2]: 157 nM

SMILES: COc1ccc(-c2c(-c3nc4cc(N5CCN(C)CC5)ccc4[nH]3)[nH]c(C)c2C(C)=O)cc1OC
- IC50 [2]: 426 nM

SMILES: CC(=O)c1c(C)[nH]c(-c2nc3cc(N4CCN(C)CC4)ccc3[nH]2)c1-c1ccc2ccccc2c1
- IC50 [2]: 556 nM

SMILES: CC(=O)c1c(C)[nH]c(-c2nc3cc(N4CCN(C)CC4)ccc3[nH]2)c1-c1cnn(C)c1
- inhibition at 1 µM [16]: 53%

SMILES: CC(=O)c1c(C)[nH]c(-c2nc3c([nH]2)=CCC(Nc2ccnc(Cl)n2)C=3)c1C (stereo not drawn)
- inhibition [1]: 91.1%

SMILES: CC(=O)c1c(C)[nH]c(-c2ccc3cc[nH]c3c2)c1C
- inhibition [1]: 79.5%

SMILES: CCN(CC)c1ccc2[nH]c(-c3[nH]c(C)c(C(C)=O)c3C)nc2c1
- inhibition at 1 µM [16]: 19.7%

SMILES: CC(=O)c1c(C)[nH]c(-c2nc3cc(N4CCN(C)CC4)ccc3[nH]2)c1C1CCCCC1
- inhibition [1]: 79%

SMILES: COc1ccccc1-c1c(-c2nc3cc(N4CCN(C)CC4)ccc3[nH]2)[nH]c(C)c1C(C)=O
- inhibition at 1 µM [16]: 25.3%

SMILES: CC(=O)c1c(C)[nH]c(-c2nc3cc(N4CCOCC4)ccc3[nH]2)c1C
- inhibition at 1 µM [16]: 21.2%

SMILES: CC(=O)c1c(C)[nH]c(-c2nc3cc(N4CCN(C)CC4)ccc3[nH]2)c1C
- IC50 [2]: 699 nM

SMILES: CC(=O)c1c(C)[nH]c(-c2ccc3c4ccccc4n(C)c3c2)c1C
- inhibition [1]: 84%

SMILES: COc1ccc(-c2c(-c3nc4cc(N5CCN(C)CC5)ccc4[nH]3)[nH]c(C)c2C(C)=O)cc1
- IC50 [2]: 223 nM

SMILES: Cc1sc2c(c1C)C(c1ccc(Cl)cc1)=N[C@@H](CC(=O)Nc1ccc(O)cc1)c1nnc(C)n1-2 [BIRABRESIB]
- GI50 [17]: 179 nM
- GI50 [18]: 179 nM
- GI50 [19]: 29.6 nM
- GI50 [20]: 212 nM
- GI50 [21]: 94.6 nM
- GI50 [22]: 162 nM
- inhibition in vivo at 20 mg/kg [23]: 63.5%
- GI50 [24]: 262 nM

SMILES: CC(=O)c1c(C)[nH]c(-c2nc3cc(N4CCN(C)CC4)ccc3[nH]2)c1-c1ccc(N(C)C)cc1
- IC50 [2]: 192 nM

SMILES: CC(=O)c1c(C)[nH]c(-c2nc3cc(N4CCN(C)CC4)ccc3[nH]2)c1-c1ccc(Cl)cc1
- IC50 [2]: 291 nM

SMILES: CSc1ccc(-c2c(-c3nc4cc(N5CCN(C)CC5)ccc4[nH]3)[nH]c(C)c2C(C)=O)cc1
- IC50 [2]: 187 nM

SMILES: CC(=O)c1c(C)[nH]c(-c2nc3cc(N4CCCCC4)ccc3[nH]2)c1C
- IC50 [2]: 1810 nM

SMILES: CC(=O)c1c(C)[nH]c(-c2nc3ccccc3s2)c1C
- inhibition [1]: 73.6%

SMILES: CC(=O)c1c(C)[nH]c(-c2nc3cc(N4CCN(C)CC4)ccc3[nH]2)c1-c1ccc(C)cc1
- IC50 [2]: 176 nM

SMILES: CC(=O)c1c(C)[nH]c(-c2nc3cc(N4CCN(C)CC4)ccc3[nH]2)c1-c1cccc(Cl)c1
- IC50 [2]: 321 nM

SMILES: CC(=O)c1c(C)[nH]c(-c2nc3cc(N4CCN(C)CC4)ccc3[nH]2)c1C(C)C
- inhibition [1]: 98.9%
